How the values were obtained:
[1] = system: S. cerevisiae R560-1 / R560-1C (fks1-2); experiment: liquid MIC assay of resistant clone; format: cell-based, Saccharomyces cerevisiae
Experimental: Strain W303-1A was transformed by the spheroplast method (MYG) with yeast genomic libraries obtained from D. Botstein (1982. Cell, 28:145-154). Transformants selected on uracil dropout medium were pooled and stored at -80° C. in 20% glycerol. After determining the titer (colony forming units(CFU)/ml), aliquots of the stocks were spread at .congruent.5×10^3 CFU per plate onto uracil dropout medium containing the semisynthetic echinocandin L-733,560 at 0.5 mcg/ml or 1.25 mcg/ml. This concentration of L-733,560 is sufficient to select for resistant clones. Twenty-seven drug resistant colonies were isolated. […] Briefly, L-733,560 was serially diluted across the wells of a sterile microtiter plate such that the concentration in each row ranged from 16 to 0.03 mcg/ml in 2-fold increments after an equal volume of a cell suspension in liquid uracil dropout medium was added. After 24 h at 30° C., plates were read in a spectrophotometer at a wavelength of 600 nm, and the percent of control growth in each well (relative to a no-drug control well) was calculated. […]
Because this strain was isolated as a transfornant from the genomic library, it was expected that resistance would be due to the gene residing on the plasmid contained in R560-1. […] R560-1C was mated to the wild type strain W303-1B, sporulated, dissected, and the sensitivity to L-733,560 quantitated by liquid MIC assay. […]

[2] = system: S. cerevisiae YFK007 (wild type); experiment: primary screen, zone size on agar; format: cell-based, Saccharomyces cerevisiae; settings: 20 ng FK506, 10 mcg CsA, 10 mcg L733,560, 20 mcg aculeacin, 20 mcg papulacandin, 48 h
Experimental: (§1) Each strain is grown at 28°-30° C. in YPAD/10 mM CaCl2 medium with shaking at 220 rpm (to mid or late log phase). The cultures are diluted 1:10 with water, and the OD values of the dilutions are measured at 600 nm (against a blank of YPAD/10 mM CaCl2 similarly diluted 1:10 in water). The OD value is multiplied by 10 to estimate the OD of the culture. Portions (100 ml) of YPAD/10 mM CaCl2 medium containing 1.5% agar, equilibrated at 45° C. in a water bath, are seeded with culture such that the final cell density in the agar would have an OD value of 0.015 (i.e., 3×10^6 cfu/ml; a sample calculation is provided below). The seeded agar is poured into 500 cm^2 Nunc plates. Once the agar plates have solidified, 10 mcL aliquots of samples containing test compounds, such as fermentation extracts, are dissolved in water, 100% methanol or ethanol, or up to 50% DMSO and are placed on each member of the two-plate set in 11 by 8 arrays.
(§2) The plates are incubated for 48 h at 28°-30° C. Diameters of the zones are read to the outermost edge and recorded in mm. The clarity of the zone is reported as clear (no designation), hazy (h), or very hazy (vh). Very hazy zones are best seen by viewing the plate under an elevated light placed between the assay dish and a dark wall.

[3] = system: S. cerevisiae YFK532-7C (fks1-1); experiment: primary screen, zone size on agar; format: cell-based, Saccharomyces cerevisiae; settings: 20 ng FK506, 10 mcg CsA, 10 mcg L733,560, 20 mcg aculeacin, 20 mcg papulacandin, 48 h
Experimental: as §1, §2

[4] = system: S. cerevisiae YFK798 (fks1-1 + CN); experiment: primary screen, zone size on agar (calcineurin counter screen); format: cell-based, Saccharomyces cerevisiae; settings: 20 ng FK506, 10 mcg CsA, 10 mcg L733,560, 20 mcg aculeacin, 20 mcg papulacandin, 48 h
Experimental: Counter screening strains were devised for identifying calcineurin inhibitors. Overexpression of yeast calcineurin in the fks1-1 mutant (strain YFK798) constitutes the most general of these. […] Glucan synthase inhibitors show neither effect and thus can be distinguished from calcineurin inhibitors.
as §1, §2

[5] = system: S. cerevisiae FKS1 pcr1 (fks2-1): MY2257, MY2258; experiment: MIC assay; format: cell-based, Saccharomyces cerevisiae; settings: less than 10% growth, 42 hours
Experimental: (§3) The sensitivities of pcr1(fks2-1) fks1-1 and pcr1(fks2-1) FKS1 strains to L-733,560, L-636,947 (Aculeacin), and L-687,781 (Dihydropapulocandin) were determined in MIC assays. Briefly, strains were grown to stationary phase in 5.0 ml of liquid YPAD medium. MY2256 precultures were grown in liquid YPAD10Ca. MIC assays were performed in flat well microtiter plates in triplicate. Each well of the microtiter plate was filled with 100 mcL of YPAD medium. To the first well, 100 mcL of a 4× solution of drug in YPAD medium was added. To serve as a control, a stock solution of […] of YPAD was made. 100 mcL of this solution was added to the initial well for strains grown in the presence of solvent but the absence of drug. Two-fold serial dilutions of the drug were performed down the plate.
(§4) Cultures were diluted to 5×10^5 cells/ml in YPAD (1 OD660 =3.3×10^7 cells/ml). 100 mcL of diluted culture was added to each well, resuspended, and incubated at 28° C. After 42 hours, cultures were resuspended and cells densities measured in an SLT Laboratories 340 ATTC microtiter plate reader. The MICs concentrations presented in the table below represent the concentrations of drug that result in less than 10% growth of the strain grown in the absence of drug.

[6] = system: S. cerevisiae fks1-1 PCR1 YFK0688-14B; experiment: MIC assay; format: cell-based, Saccharomyces cerevisiae; settings: less than 10% growth of no-drug control, 42 hours, 28° C.
Experimental: as §3, §4

[7] = system: S. cerevisiae fks1-1 pcr1 (fks2-1): MY2256, YFK0996-11B, MY2259, MY2260; experiment: MIC assay; format: cell-based, Saccharomyces cerevisiae; settings: less than 10% growth, 42 hours
Experimental: as §3, §4

[8] = system: S. cerevisiae wild type YFK0005; experiment: MIC assay; format: cell-based, Saccharomyces cerevisiae; settings: less than 10% growth of no-drug control, 42 hours, 28° C.
Experimental: as §3, §4

Pneumocystis carinii = settings: rat model of P. carinii pneumonia; Schmatz et al. 1990; cited from earlier work

Question: Which results are given for dihydropapulacandin [L-687,781]?
Answer: resistance phenotype in liquid MIC assay [1]: resistance phenotype; Primary Screen Zone size (mm) [2]: 20-22 mm; Primary Screen Zone size (mm) [3]: 26-28 mm; Primary Screen Zone size (mm) [4]: 26-28 mm; MIC [5]: > 40 µg/mL; MIC [6]: 10 µg/mL; MIC [7]: > 40 µg/mL; MIC [8]: 40 µg/mL; reducing the number of cysts in the lungs of infected rats (Pneumocystis carinii): effective

Source: patent US5821353A, “DNA encoding 1,3 beta-D glucan synthase subunits” (Merck & Co., Inc., priority 1996, dated 1998)
